{
  "source": "patent US20250129122A1",
  "about": "“PEPTIDE, AND CELL FUSION AGENT AND PHARMACEUTICAL COMPOSITION FOR CANCER THERAPY CONTAINING SAID PEPTIDE” (priority 2021, published 2025)",
  "key": {"[1]": {"tested_on": "RFL cells", "assay": "Apoptosis induction, Caspase-3/7 activity (IncuCyte S3 live cell analysis)", "assay_type": "cell-based, rat", "details": "0.06 μg/mL, scanned every hour for 3 days, untreated control did not increase", "method": "(§1) In this Example, the apoptosis ability of peptide 16 was examined using the […] and RM4 cells. An activity of Caspase-3/7 which are indications of apoptosis, was measured using IncuCyte S3 live cell analysis system (Essen BioScience).\n(§2) The activity of Caspase-3/7 activity is measured using an inert non-fluorescent (DEVD) substrate that can penetrate the cell membrane. An activated Caspase-3/7 cleaves the substrate, and thereby a DNA-bound green fluorescent label is released. The activity of Caspase-3/7 is measured by the intensity of green fluorescence.\n(§3) RFL cells or RM4 cells were seeded on 96-well plates and 0.06 μg/mL of peptide 16 was added thereto. Caspase-3/7 Green Reagent (Unit size: 20 ul, 5 mM/vial) was diluted 500-fold with Ham's F-12K and added thereto.\n(§4) They were measured using the IncuCyte S3 live cell analysis system, by continuously scanning every hour for 3 days with an objective lens of magnification of 10 times and 4 fields of view. As a control, RFL cells or RM-4 cells which were not treated with peptide 16, were used."}, "[2]": {"tested_on": "RM4 cells", "assay": "Apoptosis induction, Caspase-3/7 activity (IncuCyte S3 live cell analysis)", "assay_type": "cell-based", "details": "0.06 μg/mL, scanned every hour for 3 days, untreated control did not increase", "method": "as §1, §2, §3, §4"}, "[3]": {"tested_on": "HVJ virus (Sendai virus)", "assay": "Virus envelope fusion, electron micrograph", "excerpt": "In this example, peptide 16 was applied to the HVJ virus (Sendai virus), and its ability to fuse with the virus was examined."}, "[4]": {"tested_on": "A549 cells (human alveolar epithelial adenocarcinoma cells)", "assay": "In vivo anticancer effect on A549 tumor transplanted in nude mice", "design": "species or system mouse", "details": "A549 subcutaneous, 18.75 mg/kg or 37.5 mg/kg intravenously two times/week during 5 weeks, autopsy 35 days after implantation", "method": "In this example, the anticancer effect of peptide 16 on A549 cells (human alveolar epithelial adenocarcinoma cells) was examined in vivo.\nCAnN.Cg-Foxn1nu/CrlCrlj nude mice were divided into groups of 6 animals each. A549 cells were suspended in PBS at a concentration of 1×10^8 cells/mL and 0.1 mL thereof were transplanted subcutaneously to the right ventral part thereof. The peptide 16 was administered intravenously from the tail vein at a dose of 18.75 mg/kg or 37.5 mg/kg (peptide 16 group-1, or peptide 16 group-2) on two times/week during 5 weeks after tumor transplantation. Control group was administered PBS only.\nAutopsy was performed 35 days after tumor implantation, and the tumor was removed. FIGS. 13A (×100) and B (×400) are the photographs of tumor masses of A549 cells treated with peptide 16, and FIGS. 13C (×100) and D (×400) are the controls."}},
  "data": [
    {"substance": "CH3-Pro-Ile-Val-Ser-Thr-Gln-Thr-Ala-Leu-Ala-miniPEG-D-Lys-D-Lys-D-Lys-NH2 [peptide 16]", "values": [
      {"measurement": "activity of Caspase-3/7", "setting": "[1]", "result": "the activity increased rapidly between 10 and 20 hours"},
      {"measurement": "activity of Caspase-3/7", "setting": "[2]", "result": "the activity increased rapidly between 10 and 20 hours"},
      {"measurement": "fusion of the virus envelope", "setting": "[3]", "result": "Fusion of the envelope of the HVJ virus was observed"},
      {"measurement": "antitumor effect, HE-stained excised tumor", "setting": "[4]", "result": "the inside of the tumor is necrotic"}
    ]}
  ]
}
